ChEMBL document CHEMBL2385030, “Crystallographic Investigation and Selective Inhibition of Mutant Isocitrate Dehydrogenase” (ACS Med Chem Lett, 2013)

How the values were obtained:
[1] = biological target: Isocitrate dehydrogenase [NADP] cytoplasmic (Homo sapiens, UniProt O75874); assay: Inhibition of wild type IDH1 (unknown origin) expressed in Escherichia coli BL21 using […] as substrate incubated for 5 mins prior to substrate addition measured every 30 secs
WI-38 = assay: Cytotoxicity against human WI38 cells assessed as growth inhibition after 48 hrs by MTS assay; format: cell-based; settings: WI-38, 48 h

Isocitrate dehydrogenase [NADP] cytoplasmic, sequence (O75874 whole entry): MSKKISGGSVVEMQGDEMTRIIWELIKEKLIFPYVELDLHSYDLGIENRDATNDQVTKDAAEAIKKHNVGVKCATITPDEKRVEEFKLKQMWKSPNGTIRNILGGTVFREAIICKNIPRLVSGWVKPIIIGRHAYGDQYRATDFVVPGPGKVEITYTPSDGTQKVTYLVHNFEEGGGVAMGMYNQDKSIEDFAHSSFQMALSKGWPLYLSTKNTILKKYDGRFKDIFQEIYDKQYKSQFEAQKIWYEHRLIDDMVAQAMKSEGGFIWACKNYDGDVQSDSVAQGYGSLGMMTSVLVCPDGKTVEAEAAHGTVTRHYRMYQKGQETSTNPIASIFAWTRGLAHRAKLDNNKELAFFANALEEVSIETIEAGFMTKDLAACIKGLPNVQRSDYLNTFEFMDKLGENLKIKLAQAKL

With `Cc1cc(-c2ccccc2)n(O)c(=O)c1` the Ki [1] was > 50 µM.
For `Cc1cc(Cc2ccccc2)n(O)c(=O)c1`, the EC50 (WI-38) was > 50 µM.
For `Cc1cc(Cc2ccc(O)cc2)n(O)c(=O)c1`, the EC50 (WI-38) was > 50 µM.
`O=c1cccc(Cc2ccccc2)n1O` was tested, and the EC50 (WI-38) was > 50 µM.
`CC(C)c1cc(Cc2ccccc2)n(O)c(=O)c1` was tested, and the EC50 (WI-38) was > 50 µM.
